Results: ChEMBL document CHEMBL4680379, “Structure-based Discovery of Cell-Potent Peptidomimetic Inhibitors for Protein N-Terminal Methyltransferase 1” (ACS Med Chem Lett, 2021)
The source made the active and inactive calls. No cut-off for these calls is given here.

Legend:
[1] = target: T1, N-terminal Xaa-Pro-Lys N-methyltransferase 1 (Homo sapiens, UniProt Q9BV86); assay: Inhibition of recombinant human N-terminal His6-tagged NTMT1 (1 to 222 residues) expressed in Escherichia coli BL21-CodonPlus(DE3)-RIL using GPKRIA peptide and SAM as substrate pre-incubated for 10 mins in presence of SAM followed by substrate addition by SAHH coupled fluorescence assay
T1 sequence (Q9BV86 whole entry): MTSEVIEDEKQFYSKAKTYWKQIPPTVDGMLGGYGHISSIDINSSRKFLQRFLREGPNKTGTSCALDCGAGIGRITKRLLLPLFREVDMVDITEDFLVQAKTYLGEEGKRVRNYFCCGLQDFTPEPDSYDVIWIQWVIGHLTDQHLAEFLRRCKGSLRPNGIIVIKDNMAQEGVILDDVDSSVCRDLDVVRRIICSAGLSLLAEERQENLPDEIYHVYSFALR

[2] = target: T2, N-terminal Xaa-Pro-Lys N-methyltransferase 1 (Homo sapiens) (UniProt Q9BV86); assay: Inhibition of NTMT1 in human HCT116 cells assessed as decrease in me3-SPK level at 100 uM incubated for 3 days by Western blot analysis relative to control; type: cell-based; details: HCT-116, time 3.0 day
T2 sequence (whole entry): T1 sequence (Q9BV86 whole entry)

[3] = target: T2, N-terminal Xaa-Pro-Lys N-methyltransferase 1 (Homo sapiens); assay: Inhibition of NTMT1 in human HCT116 cells assessed as decrease in me3-SPK level at 1 mM incubated for 3 days by Western blot analysis relative to control; type: cell-based; details: HCT-116, time 3.0 day
[4] = target: T2, N-terminal Xaa-Pro-Lys N-methyltransferase 1 (Homo sapiens); assay: Inhibition of NTMT1 in human HCT116 cells assessed as decrease in me3-SPK level at 300 uM incubated for 3 days by Western blot analysis relative to control; type: cell-based; details: HCT-116, time 3.0 day
Homo sapiens [5] = species on record: Homo sapiens; assay: Selectivity for recombinant human N-terminal His6-tagged NTMT1 (1 to 222 residues) expressed in Escherichia coli BL21-CodonPlus(DE3)-RIL over PRMT1 (unknown origin)
[6] = target: T3, Histone-lysine N-methyltransferase EHMT2 (Homo sapiens) (UniProt Q96KQ7); assay: Inhibition of human His-tagged G9a (913 to 1193 residues) expressed in Escherichia coli BL21-CodonPlus(DE3)-RIL at 100 uM using H3-21 peptide as substrate preincubated for 10 mins in presence of SAM followed by substrate addition by SAHH-coupled fluorescence assay relative to control
T3 sequence (whole entry): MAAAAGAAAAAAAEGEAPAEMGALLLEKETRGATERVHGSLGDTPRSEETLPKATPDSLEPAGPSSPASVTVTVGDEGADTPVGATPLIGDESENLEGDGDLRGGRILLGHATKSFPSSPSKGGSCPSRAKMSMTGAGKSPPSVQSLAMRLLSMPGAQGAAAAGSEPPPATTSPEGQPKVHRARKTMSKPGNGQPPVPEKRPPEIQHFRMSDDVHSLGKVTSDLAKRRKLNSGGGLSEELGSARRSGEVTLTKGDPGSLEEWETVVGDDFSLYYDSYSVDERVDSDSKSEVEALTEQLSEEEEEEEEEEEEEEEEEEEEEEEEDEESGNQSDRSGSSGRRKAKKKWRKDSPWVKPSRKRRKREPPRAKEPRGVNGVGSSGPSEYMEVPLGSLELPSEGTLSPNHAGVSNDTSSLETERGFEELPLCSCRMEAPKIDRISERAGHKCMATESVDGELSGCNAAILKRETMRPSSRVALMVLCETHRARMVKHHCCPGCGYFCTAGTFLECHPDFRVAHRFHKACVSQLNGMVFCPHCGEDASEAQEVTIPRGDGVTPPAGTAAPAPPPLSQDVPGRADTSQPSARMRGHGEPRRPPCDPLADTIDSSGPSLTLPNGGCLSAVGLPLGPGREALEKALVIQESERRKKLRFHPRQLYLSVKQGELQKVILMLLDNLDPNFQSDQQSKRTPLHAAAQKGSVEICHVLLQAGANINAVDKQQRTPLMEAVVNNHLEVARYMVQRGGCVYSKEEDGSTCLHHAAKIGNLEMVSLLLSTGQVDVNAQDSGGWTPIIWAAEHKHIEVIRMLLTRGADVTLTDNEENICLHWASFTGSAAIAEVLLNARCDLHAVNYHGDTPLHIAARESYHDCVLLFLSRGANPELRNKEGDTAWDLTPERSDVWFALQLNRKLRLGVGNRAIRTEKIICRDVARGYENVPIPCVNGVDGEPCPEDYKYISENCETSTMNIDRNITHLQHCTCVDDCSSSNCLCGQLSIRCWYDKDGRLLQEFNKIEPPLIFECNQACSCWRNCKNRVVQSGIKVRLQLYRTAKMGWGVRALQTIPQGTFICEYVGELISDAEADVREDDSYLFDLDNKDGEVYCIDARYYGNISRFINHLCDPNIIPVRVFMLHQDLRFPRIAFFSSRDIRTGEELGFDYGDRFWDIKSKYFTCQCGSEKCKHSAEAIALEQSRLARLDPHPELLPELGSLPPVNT

[7] = target: Protein arginine N-methyltransferase 1 (Homo sapiens) (UniProt Q99873); assay: Inhibition of PRMT1 (unknown origin) at 100 uM using H4-21 peptide as substrate preincubated for 10 mins in presence of SAM followed by substrate addition by SAHH-coupled fluorescence assay relative to control
Protein arginine N-methyltransferase 1 (Homo sapiens), sequence (Q99873 whole entry, looked up): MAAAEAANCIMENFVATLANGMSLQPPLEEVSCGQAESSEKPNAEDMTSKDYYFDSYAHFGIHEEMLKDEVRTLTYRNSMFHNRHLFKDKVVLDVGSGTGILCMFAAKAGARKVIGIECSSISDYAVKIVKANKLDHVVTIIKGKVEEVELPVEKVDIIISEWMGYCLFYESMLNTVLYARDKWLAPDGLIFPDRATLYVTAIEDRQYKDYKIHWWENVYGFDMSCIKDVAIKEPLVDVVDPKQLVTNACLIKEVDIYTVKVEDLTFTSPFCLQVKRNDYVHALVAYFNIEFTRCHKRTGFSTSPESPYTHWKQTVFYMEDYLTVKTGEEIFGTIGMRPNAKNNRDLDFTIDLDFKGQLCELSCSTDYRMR

[8] = target: Protein arginine N-methyltransferase 3 (Homo sapiens) (UniProt O60678); assay: Inhibition of PRMT3 (unknown origin) at 100 uM relative to control
Protein arginine N-methyltransferase 3 (Homo sapiens), sequence (O60678 2-531 limits assumed): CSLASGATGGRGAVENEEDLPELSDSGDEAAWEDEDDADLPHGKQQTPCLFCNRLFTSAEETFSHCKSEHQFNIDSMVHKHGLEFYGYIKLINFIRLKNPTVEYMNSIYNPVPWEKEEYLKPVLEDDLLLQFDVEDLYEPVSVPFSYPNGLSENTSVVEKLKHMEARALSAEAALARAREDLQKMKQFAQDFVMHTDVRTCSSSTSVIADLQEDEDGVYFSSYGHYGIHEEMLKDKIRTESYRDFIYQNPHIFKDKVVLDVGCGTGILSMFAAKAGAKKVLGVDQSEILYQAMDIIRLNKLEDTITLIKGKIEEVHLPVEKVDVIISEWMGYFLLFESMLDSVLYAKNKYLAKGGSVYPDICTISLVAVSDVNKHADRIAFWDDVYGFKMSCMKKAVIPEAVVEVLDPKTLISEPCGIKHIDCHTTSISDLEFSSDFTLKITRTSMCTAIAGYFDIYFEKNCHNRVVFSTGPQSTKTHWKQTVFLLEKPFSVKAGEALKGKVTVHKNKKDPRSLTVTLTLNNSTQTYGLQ

Homo sapiens [9] = species on record: Homo sapiens; assay: Selectivity for recombinant human N-terminal His6-tagged NTMT1 (1 to 222 residues) expressed in Escherichia coli BL21-CodonPlus(DE3)-RIL over His-tagged SETD7 (unknown origin)
[10] = target: T1, N-terminal Xaa-Pro-Lys N-methyltransferase 1; assay: Inhibition of NTMT1 in human HCT116 cells assessed as decrease in me3-SPK level incubated for 3 days by Western blot analysis; type: cell-based, HCT-116
Homo sapiens [11] = species on record: Homo sapiens; assay: Selectivity for recombinant human N-terminal His6-tagged NTMT1 (1 to 222 residues) expressed in Escherichia coli BL21-CodonPlus(DE3)-RIL over SAHH (unknown origin)
Trypanosoma brucei = assay: Inhibition of Trypanosoma brucei N-terminal His6-tagged PRMT7 expressed in Escherichia coli BL21-CodonPlus(DE3)-RIL at 100 uM using H4-21 peptide as substrate preincubated for 10 mins in presence of SAM followed by substrate addition by SAHH-coupled fluorescence assay relative to control
[12] = Selectivity for recombinant human N-terminal His6-tagged NTMT1 (1 to 222 residues) expressed in Escherichia coli BL21-CodonPlus(DE3)-RIL over Trypanosoma brucei N-terminal His6-tagged PRMT7 expressed in Escherichia coli BL21-CodonPlus(DE3)-RIL
Trypsin = Trypsin (Homo sapiens, UniProt P07477+P07478+P35030); assay: Stability of compound assessed as trypsin (unknown origin) mediated compound hydrolysis at 10 uM incubated for 1 hr by MALDI-MS analysis; type: ADME, protein assay
Homo sapiens [13] = species on record: Homo sapiens; assay: Selectivity for recombinant human N-terminal His6-tagged NTMT1 (1 to 222 residues) expressed in Escherichia coli BL21-CodonPlus(DE3)-RIL over human His-tagged G9a (913 to 1193 residues) expressed in Escherichia coli BL21-CodonPlus(DE3)-RIL
[14] = target: T2, N-terminal Xaa-Pro-Lys N-methyltransferase 1 (Homo sapiens); assay: Non-competitive inhibition of recombinant human N-terminal His6-tagged NTMT1 (1 to 222 residues) expressed in Escherichia coli BL21-CodonPlus(DE3)-RIL using GPKRIA peptide and varying concentration of SAM as substrate pre-incubated for 10 mins in presence of SAM followed by fixed concentration of substrate addition and measured for 15 mins by SAHH coupled fluorescence assay; details: time 25.0 min
Homo sapiens [15] = species on record: Homo sapiens; assay: Selectivity for recombinant human N-terminal His6-tagged NTMT1 (1 to 222 residues) expressed in Escherichia coli BL21-CodonPlus(DE3)-RIL over PRMT3 (unknown origin)
[16] = target: T4, Histone-lysine N-methyltransferase SETD7 (Homo sapiens) (UniProt Q8WTS6); assay: Inhibition of His-tagged SETD7 (unknown origin) at 100 uM using H3-21 peptide as substrate preincubated for 10 mins in presence of SAM followed by substrate addition by SAHH-coupled fluorescence assay relative to control
T4 sequence (whole entry): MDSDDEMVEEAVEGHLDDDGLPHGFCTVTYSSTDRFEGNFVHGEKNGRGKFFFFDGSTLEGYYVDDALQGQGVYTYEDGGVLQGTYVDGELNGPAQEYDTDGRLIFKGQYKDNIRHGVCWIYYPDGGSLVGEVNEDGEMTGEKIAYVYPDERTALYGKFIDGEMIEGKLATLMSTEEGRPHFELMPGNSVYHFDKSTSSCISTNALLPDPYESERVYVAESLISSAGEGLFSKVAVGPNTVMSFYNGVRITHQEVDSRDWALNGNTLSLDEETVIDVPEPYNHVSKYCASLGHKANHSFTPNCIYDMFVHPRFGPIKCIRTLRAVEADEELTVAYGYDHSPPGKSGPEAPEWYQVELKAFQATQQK

[17] = target: Adenosylhomocysteinase (Homo sapiens) (UniProt P23526); assay: Inhibition of SAHH (unknown origin) at 100 uM relative to control
Adenosylhomocysteinase (Homo sapiens), sequence (P23526 2-432 limits assumed): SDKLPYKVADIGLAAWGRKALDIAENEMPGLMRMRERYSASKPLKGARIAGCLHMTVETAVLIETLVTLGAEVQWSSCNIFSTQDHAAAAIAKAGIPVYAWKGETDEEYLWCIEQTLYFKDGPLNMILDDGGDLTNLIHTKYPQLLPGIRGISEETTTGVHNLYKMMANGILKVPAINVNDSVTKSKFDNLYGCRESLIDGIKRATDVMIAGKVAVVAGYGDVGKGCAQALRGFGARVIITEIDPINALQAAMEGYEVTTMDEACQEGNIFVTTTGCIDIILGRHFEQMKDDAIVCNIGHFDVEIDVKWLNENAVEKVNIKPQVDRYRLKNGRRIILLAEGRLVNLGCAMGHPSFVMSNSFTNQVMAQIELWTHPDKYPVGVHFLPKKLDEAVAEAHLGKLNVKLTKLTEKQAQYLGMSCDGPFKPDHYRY

| IC50 [1] | inhibition [2] | inhibition [3] | inhibition [4] | Compound | also measured |
| --- | --- | --- | --- | --- | --- |
| > 100000 nM |  |  |  | N=C(N)NCCC[C@H](NC(=O)[C@H](CCCCN)NC(=O)[C@@H]1CCCN1C(=O)Cc1cccc2ncccc12)C(N)=O |  |
| 130 nM | 10% | 90% | 57% | NCCCC[C@H](NC(=O)[C@@H]1CCCN1C(=O)Cc1cccc2ccccc12)C(=O)Nc1cccc(C(N)=O)c1 |  |
| 1100 nM | 0% | 79% | 55% | NCCCC[C@H](NC(=O)[C@@H]1CCCN1C(=O)Cc1cccc2ccccc12)C(=O)Nc1ccccc1 |  |
| 100 nM | 3% | 52% | 10% | N=C(N)NCCC[C@H](NC(=O)[C@H](CCCCN)NC(=O)[C@@H]1CCCN1C(=O)Cc1cccc2ccccc12)C(N)=O | Selectivity ratio (Homo sapiens [5]): > 1000; inhibition [6]: < 50%; inhibition [7]: < 50%; inhibition [8]: < 50%; Selectivity ratio (Homo sapiens [9]): > 1000; IC50 [10]: 1 mM; Selectivity ratio (Homo sapiens [11]): > 1000; inhibition (Trypanosoma brucei): < 50%; Selectivity ratio [12]: > 1000; Stabilty (Trypsin): Unstable; Selectivity ratio (Homo sapiens [13]): > 1000; inhibition [14]: Active; Selectivity ratio (Homo sapiens [15]): > 1000; inhibition [16]: < 50%; inhibition [17]: < 50% |
| 970 nM | 0% | 47% | 1% | NCCCC[C@H](NC(=O)[C@@H]1CCCN1C(=O)Cc1cccc2ccccc12)C(=O)Nc1cccc2ccccc12 |  |
